Data: PMC2424174, “Suppression of Tumor Growth and Angiogenesis by a Specific Antagonist of the Cell-Surface Expressed Nucleolin” (PLoS ONE, 2008)
Marks after values point to notes of the source that are not given here. One block for each compound: values may come before it.

Assays:
[1] = test system: cells (surface nucleolin); conditions: cited from earlier work
Text: The importance of cell-surface nucleolin in cancer biology is highlighted by many studies showing that ligands of nucleolin play critical role in tumorigenesis and angiogenesis, [16]. For example, among surface nucleolin binding growth factors: midkine and PTN can transform cells, whereas on endothelial cells they exert both mitogenic and angiogenic effect. Laminin-1 that induces differentiation of cells binds surface nucleolin, while urokinase that is implicated in mechanisms regulating pericellular proteolysis, cell-surface adhesion, and mitogenesis binds and is co-internaliz ... || Previously, guanosine-rich phosphodiester oligonucleotides (referred to as GROs) and endostatin have been reported to exert antitumoral and antiangiogenic activity, respectively, through interaction with surface nucleolin [21], [41], [42]. […] At 20°C, GRO ...

nucleolin = conditions: cited from earlier work
Text: HB-19 presents pentavalently the tripeptide Kψ(CH2N)PR in which the reduced peptide bond provides high stability against serum proteases (Figure 1). HB-19 forms a stable complex with the cell-surface expressed nucleolin and is internalized by an active process. This le ... || The interaction of HB-19 with surface nucleolin was investigated using human breast cancer MDA-MB-231 tumor cells and human umbilical vein endothelial cells (HUVECs). […] Similarly, HB-19/Btn binds and forms a stable complex with surface nucleolin in a dose-dependent manner in both types of cell ... || Previously, guanosine-rich phosphodiester oligonucleotides (referred to as GROs) and endostatin have been reported to exert antitumoral and antiangiogenic activity, respectively, through interaction with surface nucleolin [21], [41], [42]. […] At 20°C, GRO ... || (+ 1 further places)

tumor cells = conditions: cited from earlier work
Description: (§1) Previously, guanosine-rich phosphodiester oligonucleotides (referred to as GROs) and endostatin have been reported to exert antitumoral and antiangiogenic activity, respectively, through interaction with surface nucleolin [21], [41], [42]. […] At 20°C, GRO ...

nuclear nucleolin = conditions: cited from earlier work
Description: as §1

surface nucleolin [2] = assay: Complex of HB-19/Btn with surface nucleolin, MDA-MB-231 cells, avidin-agarose and immunoblot; type: binding, human; conditions: 45 min, 20°C, 0-12 µM HB-19/Btn
Description: Figure 2 HB-19 binds nucleolin expressed on the surface of tumor cells and causes reduction of cytoplasmic/surface but not nuclear nucleolin. (A) HB-19/Btn forms a stable complex with nucleolin expressed on the surface of cells. MDA-MB-231 cells were incubated (45 min, 20°C) with 0, 1, 2, 4, 8 and 12 µM of HB-19/Btn before preparation of surface/cytoplasmic (i.e., nucleus-free) and nuclear extracts, [28]. Samples of surface nucleolin (purified using surface/cytoplasmic extracts from 2×10^7 cells) and crude surface/cytoplasmic and nuclear extracts (from 2×10^6 cells) were analyzed by immunoblotting for the detection of nucleolin using mAb D3. (B) Specific reduction of surface/cytoplasmic nucleolin in HB-19 treated cells. […] Material from 2×10^6 cells (Untreated or HB-19 treated cells as indicated − or + signs, respectively) was analyzed by immunoblotting for the detection of nucleolin. […] The intensity of nucleolin protein bands quantified by using the NIH image software indicated 75% and 93% reduction of surface/cytoplasmic nucleolin in HB-19 treated cells at 24 and 48 hours, respectively, compared to the corresponding untreated cells. […] MDA-MB-231 cells cultured in the absence (Control Cells) or presence of 10 µM of HB-19 for 48 hours (HB-19 Treated Cells) were fixed in PFA-Triton and processed for fluorescence microscopy. […]

surface nucleolin [3] = assay: Complex of HB-19/Btn with surface nucleolin, HUVECs, avidin-agarose and immunoblot; type: binding, human; conditions: 45 min, 20°C, 0-12 µM HB-19/Btn
Description: Figure 3 Specific binding and entry of HB-19 in endothelial cells. (A) HB-19/Btn forms a stable complex with nucleolin expressed on the surface of HUVECs. Cells were incubated (45 min, 20°C) with 0, 1, 2, 4, 8 and 12 µM of HB-19/Btn before preparation of surface/cytoplasmic and nuclear extracts and recovery of surface nucleolin from the surface/cytoplasmic extracts as in Figure 2A. Material extracted from 2×10^7 and 2×10^6 cells was analyzed in panels Surface and Surface/Cytoplasm or Nucleus, respectively. Immunoblotting was with the anti-nucleolin mAb D3. (B) The specific binding of HB-19/Btn to HUVECs. The binding of 1 µM HB-19/Btn was studied at 4 °C by FACScan analysis. To show the specificity of binding, the reaction was carried out in the absence or presence of 50 µM HB-19, F3, or 9Arg peptides. The ordinate gives the relative cell number, whereas the abscissa gives the relative fluorescence intensity. (C) HB-19 entry in HUVECs. Cells were incubated with 5 µM of HB-19/Btn (1 hour, 37°C) before fixation in PFA (for surface binding) or PFA-Triton (for entry), respectively. […]
Cells were passaged in DMEM culture medium containing 10% FCS in 75 cm^2 flasks. […] The purified surface nucleolin was eluted in the electrophoresis sample buffer containing SDS and analyzed by SDS–polyacrylamide gel electrophoresis (PAGE).

[4] = test system: MDA-MB-231 tumor-cell xenografts; assay: MDA-MB-231 xenograft in nude mice; type: in vivo, human; conditions: tamoxifen 10 mg/kg, peritumoral, 3 times/week, 6 weeks, n = 5
Description: (§2) Figure 8 HB-19 inhibits tumor growth in the nude mice. (A) HB-19 inhibits the growth of MDA-MB-231 tumor-cell xenografts. Cells (2×10^6) were injected subcutaneously into the right flank of female nude mice. Two weeks later, mice with a palpable tumor of approximately 40 mm^3 in volume were randomly separated into three groups (n = 5) and were given peritumoral injections 3 times/week of 0.1 ml PBS alone (Control), HB-19 (5 mg/kg), or Tamoxifen (Tmx) 10 mg/kg) for 6 weeks. (B) HB-19 inhibits the growth of MDA-MB-435 tumor-cell xenografts. Cells (1×10^6) were injected in the mammary fat pad of female nude mice. Two weeks later, mice with a palpable tumor were randomly separated into three groups (n = 10) and were given intraperitoneal injections 3 times/week of 0.1 ml PBS alone (Control), HB-19 (5 mg/kg), or 5-fluouracil (5-FU, 40 mg/kg) for 8 weeks. At the end of each experiment (in A and B), mice were sacrificed and the tumors were excised and weighed. The results are presented as the mean weight ±standard deviation (±S.D.) obtained from the number of mice in each group. (C, D) Inhibition of tumor development in mice treated by intraperitoneal (i.p.) and subcutaneous (s.c.) administration of HB-19. MDA-MB-231 tumor bearing mice in three groups (n = 10) were treated with HB-19 (10 mg/kg) by i.p. or s.c. injections, 3 times/week for 28 days. […] Statistical significance: *p<0.05, **p<0.01, ***p<0.001.

[5] = Blood cell count in tumor bearing mice; type: in vivo, mouse; conditions: 3 times/week, 8 weeks
Description: as §2
Blood samples were collected by cardiac puncture. Hematocrit level, white blood cells and platelets count were determined individually in whole blood anticoagulated with EDTA (1 mM) at room temperature. Blood cell count was analyzed with an automated flow cytometric blood cell counter (Cell-Dyn 3500, Abbott Laboratories, Rungis, France).

[6] = test system: MDA-MB-435 tumor-cell xenografts; assay: MDA-MB-435 xenograft in nude mice; type: in vivo, human; conditions: 5-FU 40 mg/kg, intraperitoneal, 3 times/week, 8 weeks, n = 10
Description: Figure 8 HB-19 inhibits tumor growth in the nude mice. (A) HB-19 inhibits the growth of MDA-MB-231 tumor-cell xenografts. Cells (2×10^6) were injected subcutaneously into the right flank of female nude mice. Two weeks later, mice with a palpable tumor of approximately 40 mm^3 in volume were randomly separated into three groups (n = 5) and were given peritumoral injections 3 times/week of 0.1 ml PBS alone (Control), HB-19 (5 mg/kg), or Tamoxifen (Tmx) 10 mg/kg) for 6 weeks. (B) HB-19 inhibits the growth of MDA-MB-435 tumor-cell xenografts. Cells (1×10^6) were injected in the mammary fat pad of female nude mice. Two weeks later, mice with a palpable tumor were randomly separated into three groups (n = 10) and were given intraperitoneal injections 3 times/week of 0.1 ml PBS alone (Control), HB-19 (5 mg/kg), or 5-fluouracil (5-FU, 40 mg/kg) for 8 weeks. At the end of each experiment (in A and B), mice were sacrificed and the tumors were excised and weighed. The results are presented as the mean weight ±standard deviation (±S.D.) obtained from the number of mice in each group. (C, D) Inhibition of tumor development in mice treated by intraperitoneal (i.p.) and subcutaneous (s.c.) administration of HB-19. MDA-MB-231 tumor bearing mice in three groups (n = 10) were treated with HB-19 (10 mg/kg) by i.p. or s.c. injections, 3 times/week for 28 days. […]

[7] = test system: CD31 endothelial marker in tumors; assay: Tumor vascularization, CD31 immunohistochemistry; type: in vivo, mouse; conditions: CD31 staining; HB-19 5 mg/kg or 5-FU 40 mg/kg, intraperitoneal, 8 weeks; compared to untreated tumors
Description: Figure 9 Reduced density of blood vessels in HB-19 treated tumor-bearing mice. Sections of tumors recovered from mice, untreated control and treated with either HB-19 or 5-FU (experiment described in Figure 8B) were stained with antibodies against the CD31 endothelial marker and analyzed by fluorescence microscopy. […] Angiogenesis was quantified by image analysis of CD31-labeled endothelial cells.
Immediately after surgical resection, tumors, were frozen in liquid nitrogen and fixed for 20 min in acetone at 4°C or fixed with 4% PFA for paraffin inclusion. The sections of 8 µm were re-hydrated and saturated in PBS containing 1% BSA and 2% normal goat serum. To visualize tumor endothelial cells, sections were incubated with a Rat anti-mouse CD31 monoclonal antibody (1∶50) in saturation buffer 1 hour at room temperature. After two washes in PBS, sections were incubated for 1 hour at room temperature with biotinylated goat anti-Rat IgG (1∶1000 dilution; Chemicon International Inc., Temecula, CA) in saturation buffer, followed by three washes in PBS and incubation with the avidin-biotinylated-alkaline phosphatase complex (Vector Laboratories). […] Angiogenesis was quantified by Image analysis of CD31-labeled endothelial cells. The EC density in each field was expressed as the ratio of EC area/total area examined ×100 (%). […]

Compound: endostatin
internalization [1]: binds nucleolin on the surface of endothelial cells before translocation to the nucleus | heparan sulfate proteoglycan requirement of binding to surface nucleolin (nucleolin): endostatin but not HB-19 binding to surface nucleolin requires heparan sulfate proteoglycans | direct effect on tumor cell growth (tumor cells): does not directly affect tumor cell growth | phosphorylation of nuclear nucleolin (nuclear nucleolin): inhibits phosphorylation of nuclear nucleolin

concentration of maximum binding to surface nucleolin (surface nucleolin [3]): 8 to 12 µM
Compound: H2NLys-Lys-Lys-Gly-Pro-Lys-Glu-Lys-βAla-Lys(Btn)-βAlaCONH2 [HB-19/Btn, biotinylated HB-19 for recovery of surface nucleolin]
concentration of maximum binding to surface nucleolin (surface nucleolin [2]): 8 to 12 µM

Compound: CC/C(=C(\c1ccccc1)c1ccc(OCCN(C)C)cc1)c1ccccc1 [tamoxifen, reference compound]
reduction of tumor mass [4]: 80%

reduction in the number of lymphocytes ([5]; 5-FU 40 mg/kg, intraperitoneal): 55% | Eosinophils ([5]; HB-19 5 mg/kg or 5-FU 40 mg/kg i.p., mean ± SD, n = 10, untreated 0.01±0.02): 0.05±0.04 ×10^3/µl | Basophils ([5]; HB-19 5 mg/kg or 5-FU 40 mg/kg i.p., mean ± SD, n = 10, untreated 0.10±0.06): 0.10±0.04 ×10^3/µl | Monocytes ([5]; HB-19 5 mg/kg or 5-FU 40 mg/kg i.p., mean ± SD, n = 10, untreated 0.20±0.09): 0.22±0.09 ×10^3/µl | Neutrophils ([5]; HB-19 5 mg/kg or 5-FU 40 mg/kg i.p., mean ± SD, n = 10, untreated 0.89±0.39, 5-FU p<0.05): 0.53±0.15 * ×10^3/µl | Lymphocytes ([5]; HB-19 5 mg/kg or 5-FU 40 mg/kg i.p., mean ± SD, n = 10, untreated 1.84±0.78, 5-FU p<0.01): 0.83±0.22 ** ×10^3/µl | Leukocytes ([5]; HB-19 5 mg/kg or 5-FU 40 mg/kg i.p., mean ± SD, n = 10, untreated 3.05±1.29, 5-FU p<0.05): 1.73±0.37 * ×10^3/µl | Erythrocytes ([5]; HB-19 5 mg/kg or 5-FU 40 mg/kg i.p., mean ± SD, n = 10, untreated 8.73±0.26, 5-FU p<0.0001): 7.60±0.30*** ×10^6/µl | Platelets ([5]; HB-19 5 mg/kg or 5-FU 40 mg/kg i.p., mean ± SD, n = 10, untreated 1041±91): 1042±59 ×10^3/µl
Compound: O=c1[nH]cc(F)c(=O)[nH]1 [5-FU, 5-fluouracil]
leucopenia ([5]; 5-FU 40 mg/kg, intraperitoneal): toxic causing a significant degree of leucopenia | inhibition of tumor growth [6]: 66% | inhibition of tumor vascularization [7]: significantly inhibited tumor vascularization
